The values that follow come from patent publication US20240342138A1, “MICROTUBULE TARGETING AGENTS” (BPGbio, Inc., priority 2023, published 2024).

Data set [1] can be described thus: Blood brain barrier permeability (PVDF membrane coated with porcine brain polar lipid extract). Format: in vitro ADME. The settings on record: for recovery at 4 h, 10 μM: pig, not told. The method, then:
Preparation of Donor Solution a) 0.2 mM working solution was prepared by diluting 10 mM stock solution with DMSO. b) 10 μM donor solution (5% DMSO) was prepared by diluting 20 μL of working solution with 380 μL PBS. 2) 150 μL of 10 μM donor solutions to each well of the donor plate, whose PVDF membrane was precoated with 5 μL of 1% brain polar lipid extract (Porcine)/dodecane mixture. Duplicates were prepared. 3) 300 μL of PBS was added to each well of the PTFE acceptor plate. 4) The donor plate and acceptor plate were combined together and incubated for 4h at room temperature with shaking at 300 rpm. 5) Preparation of TO sample: 20 μL donor solution was transferred to new well followed by the addition of 250 μL PBS (DF: 13.5), 130 μL ACN (containing internal standard) as TO sample. 6) Preparation of acceptor sample: The plate was removed from incubator. 270 μL solution was transferred from each acceptor well and mixed with 130 μL ACN (containing internal standard) as acceptor sample. 7) Preparation of donor sample: […] was transferred from each donor well and mixed with 250 μL PBS (DF: 13.5), 130 μL ACN (containing internal standard) as donor sample. 8) Acceptor samples and donor samples were all analyzed by LC/MS/MS.

In data set [2] the test system is colchicine binding site of tubulin. In words: EBI labeling assay in MIA PaCa2 cells (Western blot). The settings on record: 2 hours compound, then 2 hours 100 μM EBI, FIG. 2, FIG. 3. Format: cell-based. A general note: In western blotting, separated proteins are transferred to a membrane and probed.
Experimental: MIA PaCa2 cells were cultured in DMEM+10% FBS and 1% P/S. Cells were plated at 1.5-2×10^6 in 60 mm dishes. For drug treatments, cells were treated the day after plating with 0.1% DMSO or the compounds tested at the concentrations indicated in FIG. 2 for 2 hours.
• Cells were treated with compounds for 2 hours at 37°, 5% CO2 (in the cell culture incubator), and then for an additional 2 hours with 100 μM EBI (with compounds present) under the same conditions. • Cells were then harvested with Trypsin and pelleted at 500 g for 3 minutes. • Cells were rinsed in 1 mL PBS and transferred to clean epi tubes. […] BCA assay plates were incubated for 15 minutes in the 37-degree incubator in the outer molecular lab. • After protein normalization (including addition of reducing Laemmli buffer from a 6× stock) samples were boiled at 95 degrees for 3 minutes and frozen for subsequent Western Blotting.
Significance in difference of treated MIA PaCa-2 cells to 0.1% DMSO treated cells were tested by Student t test (* p<0.05; ** p<0.01; *** p<0.001).
A further data set concerns HCT116 cells. In words: Kinetochore assembly, immunocytochemistry / confocal microscopy. Format: cell-based. The settings on record: 300 nM, 24h. The method, then:
The HCT116 cells were cultured using DMEM media supplemented with 10% FBS and 1% Pen/Strep. Cells were maintained to a maximum of 80% confluency before being split and plated into coverslips in 12-well plates.
1. HCT116 cells were plated on Poly-D-Lysine German Glass Coverslips (#1.5, 18 mm)
2. After 24h cells were treated with 300 nM of Compound 1 and Nocodozole.
3. After 24h cells were washed briefly with PBS and fixed with warm 4% paraformaldehyde at room temperature for 10 min.
4. Cells were permeabilized and blocked in 10% goat serum, 0.5% Triton-X in PBS for 1 hr.
5. Cells were incubated with Primary antibodies overnight.
6. Washed 3× with PBS for 10 min
7. Incubated with secondary antibodies at room temperature for 1 hr.
8. Washed 3× with PBS for 10 min
9. Coverslips were mounted with ProLong Gold Anti-Fade Mount with DAPI and imaged with Olympus FV1200 MPE Microscope.
10. Images were collected with identical confocal settings for all of the samples and Z-stacked images were projected with maximal projection mode using Fluor View Software.
1. Selected cells of interest using the drawing/selection tools (i.e. rectangle, circle, polygon or freeform).
2. From the Analyze menu selected “Measure.”
3. Selected region with no fluorescence to be my background.
4. Repeated these steps for other cells in the field of view
5. Used the CTCF formula to calculate Mad1 expression:
CTCF=Integrated Density−(Area of selected cell×Mean fluorescence of background readings)
Micrographs were imaged using Olympus FV1200 MPE confocal microscope at 63× oil. White arrows indicate dividing cells. Representative images of N=3 biological replicates. Significance in difference of treated HCT116 cells to untreated cells was tested by Student t test (** p<0.01).

In the next data set the test system is CTG-1017. The settings on record: CRO historical data; cited from earlier work.
Data set [3] relates to Triple Negative Breast Cancer patient-derived organoids CTG-1520, CTG-0896, CTG-1017. Briefly: Viability of PDO models of taxane resistance (CellTiter-Glo, 5 days). The settings on record: same patient before (CTG-1017) and after (CTG-1520) taxane-based chemotherapy. Format: cell-based, human. Here is the method:
FIGS. 9A and 9B show potency of Compound 1 in patient-derived organoid (PDO) models of taxane resistance. Patient-derived organoids were treated with Compound 1, paclitaxel or controls (0.1% DMSO, positive control—10% DMSO) for 5 days. Viability was assessed using the CellTiter-Glo® assay. IC50 and maximal (max) inhibition values were extrapolated from the viability curves. A) Model overview and dose response curves to Compound 1 and paclitaxel. B) Summary of CellTiter-Glo results in all three models tested. Compiled data of N=4 replicates.
CTG-1520 and CTG-0896 were derived from Triple Negative Breast Cancer (TNBC) patients post-treatment, and progression on a taxane-based therapy and the models' resistance to paclitaxel was confirmed by testing in vivo PDX (Patient-derived xenograft) tumor growth. […] Compound 1 and paclitaxel were tested head-to-head in each model in a dose-curve setting. 10% DMSO was used as the positive control for induction of 100% cell cytotoxicity.

Data set [4] shares this test system. As to conditions: CTG-1520 ex vivo; Champion Oncology Lumen Platform database; cited from earlier work.
The next data set deals with CTG-1520 PDX tumors. The settings on record: CTG-1520 in vivo; Champion Oncology Lumen Platform database; cited from earlier work.

The compound `CC(C)NCC(O)COc1ccc(CC(N)=O)cc1` (centres unmarked) [Atenolol, reference compound] displayed a recovery at 4 h, 10 μM in data set [1] of less than 100%.
As for `COC(=O)Nc1nc2cc(C(=O)c3cccs3)ccc2[nH]1` [nocodazole, reference compound], the “Formation of EBI:β-tubulin adducts” value in data set [2] is on record as “inhibited formation of the EBI:β-tubulin adducts”. Besides, in the data set on HCT116 cells (FIG. 4A), the Mitotic spindle formation entry is on record as “lack of proper mitotic spindle formation”. In the data set with HCT116 cells (FIG. 4B), the Mad1 signal intensity result is on record as “increase in Mad1 signal intensity”.
As for `CC(C)NCC(O)COc1cccc2ccccc12` (centres unmarked) [Propranolol, reference compound], in data set [1] (10 μM, 4 h), the Permeability entry is “High”. Moreover, the Papp at 4 h, 10 μM in data set [1] (PAMPA, read-out: Mean Pe) was 47.4 nm/s. For the same compound, the recovery at 4 h, 10 μM in data set [1] was 27.7%.
As for `CC(=O)O[C@H]1C(=O)[C@@]2(C)[C@H]([C@H](OC(=O)c3ccccc3)[C@]3(O)C[C@H](OC(=O)[C@H](O)[C@@H](NC(=O)c4ccccc4)c4ccccc4)C(C)=C1C3(C)C)[C@]1(OC(C)=O)CO[C@@H]1C[C@@H]2O` [paclitaxel], the “Sensitivity of model in vivo” value with CTG-1017 is reported as “sensitive”. Moreover, the “Retention of potency in matched PDO models” value in data set [3] is “did not”. The max effect in data set [4] is recorded as 29.1%. Besides, in the data set on CTG-1520 PDX tumors, the TGI is on record as 10%.

What is called TGI is how far tumour growth fell short of that in controls.
